Measurements taken from PMC6385875 (Inorganica chimica acta, 2018).

Test: In vitro integrity of tracers in buffer at physiological pH by HPLC
Type: physicochemical
Settings: incubated at physiological pH for up to 6 h

^99mTc(CO)3(PMIDA) [^99mTc-1]
in vitro stability (decomposition by HPLC): No measurable decomposition
